# Experimental data taken from patent publication US8747811B2, “Perylenequinone derivatives and uses thereof” (Quest Pharmatech, Inc., priority 2005, dated 2014).
# Legend:
# [1] = UV-visible absorption spectra in DMSO; type: physicochemical
# Text: The absorption spectra of compounds (4) and (5) recorded in DMSO are shown in FIG. 1 along with the parent compound (2). Based on the study of absorption spectra of hypocrellin B (2) (Diwu et al. Sinica Sol. B 18, 1993, 131), the shorter wavelength absorption bands are assigned to the π-π* transition, and the absorption bands at the longer wavelength is the relation to […] charge transfer (ICT) which may take on some active role in the photodynamic activity of the molecule. From FIG. 1, the absorption at the longer wavelengths of compounds (4) and (5) has enhanced, as compared to the parent hypocrellin B (2). The maximum absorption of compounds (4) and (5) is around 600-700 nm in DMSO which helps in tissue penetration, while the parent compound hypocrellin (2) has maximum absorption at 580 nm in DMSO. When an electron donating group like 3-dimethylaminopropylamine is introduced in the quinonoid molecule, its interaction with the adjacent carbonyl group enhances the red shift in the absorption spectra, thereby leading to an extended red shift spectral region (photodynamic window) which is important for PDT.
# EMT-6 cells [2] = experiment: Dark toxicity, clonogenic assay in EMT-6 cells; type: cell-based, mouse; conditions: no light
# Method: EMT-6 cells in log phase growth were plated onto 35 mm dishes 24 hours prior to experimentation. Growth media was removed and replaced with media containing compounds (4) and (5) at the doses (0, 2.5 μM, 5 μM and 20 μM). The plates were then kept at 37° C. for 3 hours in the dark and then the cells were washed 2 times in PBS then trypsinized and re-plated at 200 cells/60 mm dish in normal RPMI growth media. The cells were allowed to grow for 7 days and then stained with Methylene Blue and the surviving colonies counted.
# EMT-6 cells in log phase growth were plated onto 35 mm tissue culture dishes 24 hours prior to experimentation. Growth media was removed and replaced with media containing compounds (4) or (5) at the above doses—0, 2.5 μM, 5 μM and 20 μM (Initially, the drugs were dissolved in pure DMSO @ a concentration of 2 mM). They were diluted down to the appropriate concentrations in RPMI growth media. The plates were then kept at 37° C. for 3 hours in the dark and then the cells were washed 2 times in PBS and finally had 2 ml of RPMI added to each dish. Then, the dark toxicity samples were kept covered at room temperature for the equivalent time taken for light treatment of the other samples. […] The cells were allowed to grow for 7 days and then stained with Methylene Blue and the surviving colonies counted.
# EMT-6 cells [3] = experiment: Light treatment (PDT), clonogenic assay in EMT-6 cells; type: cell-based, mouse; conditions: for cell killing ability: 0-20 μM drug, graded light doses, 635 nm; for cell death after light treatment: EMT-6 cells, clonogenic assay, with light; for cell survival: Five μM drug concentration with 2 J/cm^2 light treatment, 635 nm laser
# Method: EMT-6 cells in log phase growth were plated onto 35 mm tissue culture dishes 24 hours prior to experimentation. Growth media was removed and replaced with media containing compounds (4) or (5) at the above doses—0, 2.5 μM, 5 μM and 20 μM (Initially, the drugs were dissolved in pure DMSO @ a concentration of 2 mM). They were diluted down to the appropriate concentrations in RPMI growth media. The plates were then kept at 37° C. for 3 hours in the dark and then the cells were washed 2 times in PBS and finally had 2 ml of RPMI added to each dish. Then, the dark toxicity samples were kept covered at room temperature for the equivalent time taken for light treatment of the other samples. Light treated samples were subjected to grades doses of light (0, 0.5, 1, 2.5 and 5 J/cm^2) from 635 nm laser with a fluency rate of 150 milli watts. The media was removed and the cells trypsinized and re-plated at 200 cells/60 mm dish in normal RPMI growth media. The cells were allowed to grow for 7 days and then stained with Methylene Blue and the surviving colonies counted.
# BT549 cells = experiment: Photodynamic activity, tritiated thymidine uptake in BT549 cells; type: cell-based; conditions: for activity in the absence of light treatment: no light; for cell death after light treatment: tritiated thymidine uptake, with light
# Text: The photodynamic activity of compound 4 has been studied in two cell lines cells by measuring cell death post treatment by tritiated thymidine uptake (in […] cells) and clonogenic assays (in EMT-6 cells).
# The photodynamic activity of ACP-compound 5 was studied in two cell lines cells by measuring cell death post treatment by tritiated thymidine uptake (in BT549 cells) and clonogenic assays (in EMT-6 cells).
# normal mouse skin = experiment: PDT effect on normal mouse skin; type: in vivo
# Text: Likewise, the photosensitizer alone without light treatment was also ineffective.
# [4] = test system: human (ex vivo) skin samples; experiment: PDT treated human (ex vivo) skin samples, histology
# [5] = Phase 1 clinical study, topical application to the back of patients with acne; type: in vivo, human; conditions: 10 patients with acne on the back
# Text: The primary objective of the study was to measure and quantify the fluorescence levels of ACP-compound 4 in sebaceous glands, epidermis and hair follicles at different time points after topical application. The study also monitored the safety of the drug product after topical administration. The study consisted of a group of 10 patients with acne on the back.
# [6] = Fluorescence spectra in chloroform; type: physicochemical
# Text: The introduction of the extra cyclic ring in compound (5) have shown a new fluorescent band at longer wavelength (around 725 nm), because of the […] H-atom transfer process. The new florescent band is considered to be related to the ICT between the amino group and the […] carbonyl group.
# EMT-6 mouse tumor model = experiment: PDT in EMT-6 mouse tumor model; type: in vivo; conditions: liposomal formulation (DPPC and cholesterol) combined with light treatment
# Text: Liposomal formulations of compound 5 for systemic delivery of the photosensitizer. The photosensitizer is formulated with a mixture of dipalmitoyl phosphatidylcholine (DPPC) and cholesterol and extruded through membrane of different pore size until the required size of liposomes was achieved.
SMILES,absorption at the longer wavelengths as compared to the parent hypocrellin B (2) [1],activity in the absence of light treatment (EMT-6 cells [2]),cell killing ability (EMT-6 cells [3]),cell death after light treatment (EMT-6 cells [3]),cell survival (EMT-6 cells [3]),activity in the absence of light treatment (BT549 cells),cell death after light treatment (BT549 cells),"tissue damage (normal mouse skin; 70 J/cm^2, penetration for 3 to 5 hours)","tissue damage (normal mouse skin; 70 J/cm^2, penetration time of 1 or 2 hours, 7 days post treatment)","tissue damage (normal mouse skin; 100 J/cm^2, 1 hour of penetration)","tissue damage (normal mouse skin; 100 J/cm^2, 2 hours of penetration)","tissue damage (normal mouse skin; 100 J/cm^2, 3 hours of penetration)","tissue damage, photosensitizer alone (normal mouse skin; without light treatment)",histological changes after PDT [4],adverse events [5],new fluorescent band at longer wavelength [6],tumor response (EMT-6 mouse tumor model),maximum absorption [1]
"COc1c(O)c2c(=O)cc(OC)c3c4c(OC)cc(=O)c5c(O)c(NCCCN(C)C)c6c(c(c1C(C(C)=O)C(C)=C6)c23)c54 (stereo not shown) [Compound 4, 2-(N,N-dimethylaminopropyl)-amino-15-acetyl-3,10-dihydroxy-6,7,11-trimethoxy-14-methyl-15-H-cyclohepta(ghi)perylene-4,9-dione]",enhanced,No significant activity,dose dependent cell killing ability with increasing light and drug dose,significant cell death,1 cell per 1000 plated,No significant activity,significant cell death,significant epidermal apoptosis,mild injury to the epidermal cells,only the epithelium and part of the fatty layer showed damage,"Apoptosis of epidermal cells, basal layer and hair follicle","the whole tissue layer, including muscle layer showed significant damage",ineffective,no histological changes up to two days post treatment but progressive necrotic/apoptotic changes thereafter,No adverse events have been observed,–,–,–
"COc1c(O)c2c(=O)cc(OC)c3c4c(OC)cc(=O)c5c6c(c7c(c(c1C(C(C)=O)C(C)=C7)c23)c54)NC1CCCCC1N6 (stereo not shown) [Compound 5, (2,3b)-Octahydroquinoxalin-yl-hypocrellin B derivative]",enhanced,No significant activity,dose dependent cell killing ability with increasing light and drug dose,significant cell death,1 cell per 1000 plated,No significant activity,significant cell death,–,–,–,–,–,–,–,–,around 725 nm,Complete cure of the implanted tumor,–
"COc1c2c3c4c(c(OC)c(=O)c5c(O)cc(OC)c(c6c(OC)cc(O)c(c1=O)c63)c54)C(C(C)=O)=C(C)C2 [hypocrellin (2), hypocrellin B, reference compound]",–,–,–,–,–,–,–,–,–,–,–,–,–,–,–,–,–,580 nm
